PubChem BioAssay AID1963825 (Molecular Pharmacology Branch, DTP, NCI, 2024)

Test: Anticancer human tumor 997537-175-T-J1-PDC patient-derived colon adenocarcinoma cell line growth inhibition [POLQ]
Conditions: 997537-175-T-J1-PDC complex spheroid viability, combination with POLQ inhibitors; for IC50: curve of first compound; for viability, T/C: stronger effect = lower value
Method in brief: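 Patient-derived tumour cells were co-cultured with HUVEC and mesenchymal stem cells as multicellular spheroids at 37 °C. They were treated with POLQ inhibitors (novobiocin, ART-558, RP6685) alone or combined with other agents. Top concentrations were at or near clinical Cmax (otherwise 10 microM; SN-38 at 1 microM), decreasing in half-log steps.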

[1] = second compound 0.0316 µM, first compound 0.0316 µM
[2] = second compound 0.0316 µM, first compound 0.1 µM
[3] = second compound 0.0316 µM, first compound 0.316 µM
[4] = second compound 0.0316 µM, first compound 1 µM
[5] = second compound 0.0316 µM, first compound 3.16 µM
[6] = second compound 0.0316 µM, first compound 10 µM
[7] = second compound 0.1 µM, first compound 0.0316 µM
[8] = second compound 0.1 µM, first compound 0.1 µM
[9] = second compound 0.1 µM, first compound 0.316 µM
[10] = second compound 0.1 µM, first compound 1 µM
[11] = second compound 0.1 µM, first compound 3.16 µM
[12] = second compound 0.1 µM, first compound 10 µM
[13] = second compound 0.316 µM, first compound 0.0316 µM
[14] = second compound 0.316 µM, first compound 0.1 µM
[15] = second compound 0.316 µM, first compound 0.316 µM
[16] = second compound 0.316 µM, first compound 1 µM
[17] = second compound 0.316 µM, first compound 3.16 µM
[18] = second compound 0.316 µM, first compound 10 µM
[19] = second compound 1 µM, first compound 0.0316 µM
[20] = second compound 1 µM, first compound 0.1 µM
[21] = second compound 1 µM, first compound 0.316 µM
[22] = second compound 1 µM, first compound 1 µM
[23] = second compound 1 µM, first compound 3.16 µM
[24] = second compound 1 µM, first compound 10 µM
[25] = second compound 3.16 µM, first compound 0.0316 µM
[26] = second compound 3.16 µM, first compound 0.1 µM
[27] = second compound 3.16 µM, first compound 0.316 µM
[28] = second compound 3.16 µM, first compound 1 µM
[29] = second compound 3.16 µM, first compound 3.16 µM
[30] = second compound 3.16 µM, first compound 10 µM
[31] = second compound 10 µM, first compound 0.0316 µM
[32] = second compound 10 µM, first compound 0.1 µM
[33] = second compound 10 µM, first compound 0.316 µM
[34] = second compound 10 µM, first compound 1 µM
[35] = second compound 10 µM, first compound 3.16 µM
[36] = second compound 10 µM, first compound 10 µM
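Also: luminescence signal used as a surrogate for viable cells; spheroids exposed to drugs for seven days before readout.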

COc1cc2cc(C(=O)CCC(=O)O)sc2cc1OC + COC1C(OC(N)=O)C(O)C(Oc2ccc3c(O)c(NC(=O)c4ccc(O)c(CC=C(C)C)c4)c(=O)oc3c2C)OC1(C)C
IC50 (second compound 0.0316 µM): > 10 µM
IC50 (second compound 0.1 µM): > 10 µM
IC50 (second compound 0.316 µM): > 10 µM
IC50 (second compound 1 µM): > 10 µM
IC50 (second compound 3.16 µM): > 10 µM
IC50 (second compound 10 µM): > 10 µM
viability, T/C [1]: 95.1%
viability, T/C [2]: 98.6%
viability, T/C [3]: 88.1%
viability, T/C [4]: 92.5%
viability, T/C [5]: 89.7%
viability, T/C [6]: 80.3%
viability, T/C [7]: 94.3%
viability, T/C [8]: 96.3%
viability, T/C [9]: 87.5%
viability, T/C [10]: 93.5%
viability, T/C [11]: 99.1%
viability, T/C [12]: 92.2%
viability, T/C [13]: 101%
viability, T/C [14]: 108%
viability, T/C [15]: 99.9%
viability, T/C [16]: 96.2%
viability, T/C [17]: 86.2%
viability, T/C [18]: 91.8%
viability, T/C [19]: 100%
viability, T/C [20]: 98.4%
viability, T/C [21]: 104%
viability, T/C [22]: 93.5%
viability, T/C [23]: 100%
viability, T/C [24]: 90.4%
viability, T/C [25]: 96.2%
viability, T/C [26]: 101%
viability, T/C [27]: 96.5%
viability, T/C [28]: 101%
viability, T/C [29]: 97.3%
viability, T/C [30]: 105%
viability, T/C [31]: 97.2%
viability, T/C [32]: 89.6%
viability, T/C [33]: 95.5%
viability, T/C [34]: 104%
viability, T/C [35]: 94.8%
viability, T/C [36]: 84.1%

CC1COCCN1c1cc(C2(S(C)(=N)=O)CC2)nc(-c2ccnc3[nH]ccc23)n1 (centres undefined) + Nc1ccc(C#CCN(C(=O)Cc2ncc(C(F)(F)F)cc2C(F)(F)F)c2ccc(F)cc2)nn1
IC50 (second compound 0.0316 µM): > 10 µM
IC50 (second compound 0.1 µM): 7.51 µM
IC50 (second compound 0.316 µM): > 10 µM
IC50 (second compound 1 µM): > 10 µM
IC50 (second compound 3.16 µM): 6.51 µM
IC50 (second compound 10 µM): > 10 µM
viability, T/C [1]: 115%
viability, T/C [2]: 107%
viability, T/C [3]: 86.7%
viability, T/C [4]: 96.5%
viability, T/C [5]: 87.1%
viability, T/C [6]: 57.2%
viability, T/C [7]: 105%
viability, T/C [8]: 105%
viability, T/C [9]: 81.3%
viability, T/C [10]: 95.4%
viability, T/C [11]: 65.5%
viability, T/C [12]: 43.9%
viability, T/C [13]: 109%
viability, T/C [14]: 103%
viability, T/C [15]: 97.5%
viability, T/C [16]: 79.2%
viability, T/C [17]: 79.4%
viability, T/C [18]: 71.7%
viability, T/C [19]: 97.8%
viability, T/C [20]: 108%
viability, T/C [21]: 105%
viability, T/C [22]: 81%
viability, T/C [23]: 63.9%
viability, T/C [24]: 52%
viability, T/C [25]: 93.9%
viability, T/C [26]: 91.2%
viability, T/C [27]: 107%
viability, T/C [28]: 92.4%
viability, T/C [29]: 66.9%
viability, T/C [30]: 40%
viability, T/C [31]: 94.9%
viability, T/C [32]: 94.6%
viability, T/C [33]: 94.6%
viability, T/C [34]: 81.7%
viability, T/C [35]: 47%
viability, T/C [36]: 55.8%
